Values joined by “and” are separate entries in the source; they are usually repeats but may differ in a detail not shown here. Equal values may be shown once. Read-outs that look alike come from different tables or passages of the source. Values belong to the molecule of their own block, whether it stands above or below them.
Key:
A549 cells = assay: CCK-8 antiproliferation assay, A549; details: for Inhibitory efficacy: A549 cells; for IC50: A549, 48 h, read-out: IC50 (μM) A549, CCK-8, 48 h, average ± SD of three independent experiments
PC-9 cells = assay: CCK-8 antiproliferation assay, PC-9; details: for IC50: PC-9, 48 h, read-out: IC50 (μM) PC-9; for inhibition at 8 µM: PC-9, read-out: Inhibitory efficacy, PC-9, 8uM, single repeats (Repeat 1-3), given as fraction; for inhibition at 16 µM: PC-9, read-out: Inhibitory efficacy, PC-9, 16uM, single repeats (Repeat 1-3), given as fraction; for Inhibitory efficacy: single repeats (Repeat 1-3), given as fraction
H1975 cells = assay: CCK-8 antiproliferation assay, H1975; details: for Inhibitory efficacy: H1975 cells; for Inhibitory efficacy / inhibition at 2 µM / inhibition at 4 µM / inhibition at 8 µM / inhibition at 16 µM: given as fraction, Repeat 1-3; for IC50 / inhibition at 2 µM / inhibition at 4 µM / inhibition at 8 µM / inhibition at 16 µM: Homo sapiens; for IC50: NCI-H1975, 48 h, read-out: IC50 (μM) H1975, CCK-8, 48 h, average ± SD of three independent experiments; for inhibition at 2 µM / inhibition at 4 µM / inhibition at 8 µM / inhibition at 16 µM: NCI-H1975, read-out: Inhibitory efficacy, H1975 cells
wild-type EGFR = wild-type EGFR (Homo sapiens, UniProt P00533); assay: EGFR kinase assay (ELISA); details: for IC50: IC50 (μM) EGFR, ELISA, 3 μmol/L ATP; for A450: raw ELISA absorbance
Procedure: The kinase enzyme of EGFR was purchased from Carna Bioscience (Kobe, Japan). A total of 10 ng/ml anti phosphotyrosine (PY713) antibody (abcam, Cambridge Science Park, United Kingdom) was precoated in 96-well ELISA plates. […] Then, a total of 3 μmol/L ATP was added and the reaction was continued for 2 h. […] After incubation, the wells were washed with PBS and then incubated with horseradish peroxidase (HRP)-conjugated streptavidin. The wells were visualized using 3,3′,5,5′-tetramethylbenzidine (TMB), and chromogenic reaction was ended with 2 mol/L H2SO4, the absorbance was read with a multimode plate reader (PerkinElmer, United States) at 450 nm.

H460 cells = assay: CCK-8 antiproliferation assay, H460; details: for IC50: NCI-H460, 48 h, read-out: IC50 (μM) H460, CCK-8, 48 h, average ± SD of three independent experiments
[1] = 2uM, given as fraction, Repeat 1-3
[2] = 4uM, given as fraction, Repeat 1-3
[3] = 8uM, given as fraction, Repeat 1-3
[4] = 16uM, given as fraction, Repeat 1-3
[5] = Homo sapiens, A549, read-out: Inhibitory efficacy, A549 cells, 2uM, given as fraction, Repeat 1-3
[6] = Homo sapiens, A549, read-out: Inhibitory efficacy, A549 cells, 4uM, given as fraction, Repeat 1-3
[7] = Homo sapiens, A549, read-out: Inhibitory efficacy, A549 cells, 8uM, given as fraction, Repeat 1-3
[8] = Homo sapiens, A549, read-out: Inhibitory efficacy, A549 cells, 16uM, given as fraction, Repeat 1-3

Chain of wild-type EGFR (P00533 25-1210): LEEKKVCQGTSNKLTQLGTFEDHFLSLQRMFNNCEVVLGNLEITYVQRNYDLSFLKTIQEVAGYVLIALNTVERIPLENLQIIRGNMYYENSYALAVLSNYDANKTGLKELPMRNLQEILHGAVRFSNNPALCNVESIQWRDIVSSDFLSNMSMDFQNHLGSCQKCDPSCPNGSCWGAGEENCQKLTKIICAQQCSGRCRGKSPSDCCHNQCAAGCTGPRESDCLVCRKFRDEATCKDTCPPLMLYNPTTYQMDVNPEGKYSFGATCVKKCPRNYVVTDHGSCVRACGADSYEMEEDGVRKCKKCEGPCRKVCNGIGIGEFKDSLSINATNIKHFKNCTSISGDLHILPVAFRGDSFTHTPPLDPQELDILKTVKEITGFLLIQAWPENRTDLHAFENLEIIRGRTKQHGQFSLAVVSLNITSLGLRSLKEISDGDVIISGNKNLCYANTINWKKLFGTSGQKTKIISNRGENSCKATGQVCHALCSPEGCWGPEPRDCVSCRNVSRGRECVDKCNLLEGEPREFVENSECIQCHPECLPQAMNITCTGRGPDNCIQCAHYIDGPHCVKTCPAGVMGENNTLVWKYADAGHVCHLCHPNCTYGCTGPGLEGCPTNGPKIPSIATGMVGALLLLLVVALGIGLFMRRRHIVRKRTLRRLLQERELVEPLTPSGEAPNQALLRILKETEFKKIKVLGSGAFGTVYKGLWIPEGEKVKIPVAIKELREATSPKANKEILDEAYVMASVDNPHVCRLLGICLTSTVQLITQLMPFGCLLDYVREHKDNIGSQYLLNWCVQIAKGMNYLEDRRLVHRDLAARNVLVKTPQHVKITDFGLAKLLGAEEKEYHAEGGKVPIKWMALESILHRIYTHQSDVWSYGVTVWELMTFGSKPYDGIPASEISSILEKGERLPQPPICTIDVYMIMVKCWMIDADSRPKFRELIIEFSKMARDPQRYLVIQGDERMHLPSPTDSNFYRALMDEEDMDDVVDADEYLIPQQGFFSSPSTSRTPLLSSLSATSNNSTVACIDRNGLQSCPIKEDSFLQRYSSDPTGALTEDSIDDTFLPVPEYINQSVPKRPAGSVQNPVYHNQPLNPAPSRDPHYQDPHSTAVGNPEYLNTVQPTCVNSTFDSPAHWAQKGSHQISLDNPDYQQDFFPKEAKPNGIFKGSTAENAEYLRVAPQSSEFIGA

IC50 (A549 cells; Homo sapiens): > 100 µM | melting point: 88 to 91 °C | IC50 (PC-9 cells; Homo sapiens): 11.5 ± 1.57 µM | IC50 (H1975 cells): 13.1 ± 4.41 µM | inhibition at 0.0003 µM (wild-type EGFR; 0.3 nM, duplicate wells, calculated from A450): 6.05% | Inhibition (wild-type EGFR; 0.3 nM, duplicate wells, calculated from A450, 0.0003 µM): 3.39 | inhibition at 0.003 µM (wild-type EGFR; 3 nM, duplicate wells, calculated from A450): 8.07% | Inhibition (wild-type EGFR; 3 nM, duplicate wells, calculated from A450, 0.003 µM): 4.0678 | inhibition at 0.03 µM (wild-type EGFR; 30 nM, duplicate wells, calculated from A450): 9.08% | Inhibition (wild-type EGFR; 30 nM, duplicate wells, calculated from A450, 0.03 µM): 6.78 | inhibition at 0.3 µM (wild-type EGFR; 300 nM, duplicate wells, calculated from A450): 10.9% | Inhibition (wild-type EGFR; 300 nM, duplicate wells, calculated from A450, 0.3 µM): 7.627 | inhibition at 3 µM (wild-type EGFR; 3000 nM, duplicate wells, calculated from A450): 13.4% | Inhibition (wild-type EGFR; 3000 nM, duplicate wells, calculated from A450, 3 µM): 20.339 | inhibition at 30 µM (wild-type EGFR; 30000 nM, duplicate wells, calculated from A450): 61% | Inhibition (wild-type EGFR; 30000 nM, duplicate wells, calculated from A450, 30 µM): 71.3559 | IC50 (wild-type EGFR): 14.7 µM | IC50 (H460 cells; Homo sapiens): > 100 µM
SMILES: COCCOc1cc2ncnc(Nc3cccc(-c4cn(-c5ccc(F)cc5)nn4)c3)c2cc1OCCOC [e7, [6,7-Bis-(2-methoxy-ethoxy)-quinazolin-4-yl]-{3-[1-(4-fluoro-phenyl)-1H-[1,2,3]triazol-4-yl]-phenyl}-amine]
Inhibitory efficacy (A549 cells; 1uM, given as fraction, Repeat 1-3): 0.3498 and 0.2466 | Inhibitory efficacy (A549 cells; [1]): 0.3315 and 0.2534 | Inhibitory efficacy (A549 cells; [2]): 0.2813 and 0.2524 | Inhibitory efficacy (A549 cells; [3]): 0.2486 and 0.3238 | Inhibitory efficacy (A549 cells; [4]): 0.291 and 0.2842 | inhibition at 1 µM (A549 cells; Homo sapiens, A549, read-out: Inhibitory efficacy, A549 cells, 1uM, given as fraction, Repeat 1-3): 27.5% | inhibition at 2 µM (A549 cells; [5]): 24.8% | inhibition at 4 µM (A549 cells; [6]): 30.8% | inhibition at 8 µM (A549 cells; [7]): 29.7% | inhibition at 16 µM (A549 cells; [8]): 37.2% | inhibition at 4 µM (PC-9 cells; Homo sapiens, PC-9, read-out: Inhibitory efficacy, PC-9, 4uM, single repeats (Repeat 1-3), given as fraction): 21.3% | inhibition at 8 µM (PC-9 cells; Homo sapiens): 41.9% | inhibition at 16 µM (PC-9 cells; Homo sapiens): 62.5% | Inhibitory efficacy (PC-9 cells; PC-9, 4uM, 4 µM): 0.2652 and 0.1935 | Inhibitory efficacy (PC-9 cells; PC-9, 8uM, 8 µM): 0.448 and 0.4014 | Inhibitory efficacy (PC-9 cells; PC-9, 16uM, 16 µM): 0.5556 and 0.543 | Inhibitory efficacy (H1975 cells; 2uM): 0.2223 and 0.2165 | Inhibitory efficacy (H1975 cells; 4uM): 0.3132 and 0.3374 | Inhibitory efficacy (H1975 cells; 8uM): 0.4723 and 0.4708 | Inhibitory efficacy (H1975 cells; 16uM): 0.4151 and 0.4664 | inhibition at 2 µM (H1975 cells; 2uM): 29.3% | inhibition at 4 µM (H1975 cells; 4uM): 38.9% | inhibition at 8 µM (H1975 cells; 8uM): 50.2% | inhibition at 16 µM (H1975 cells; 16uM): 54.1% | Inhibitory efficacy (H460 cells; H460, 1uM, single repeats (Repeat 1-3), given as fraction, 1 µM): 0.233 and 0.152 | Inhibitory efficacy (H460 cells; H460, 2uM, single repeats (Repeat 1-3), given as fraction, 2 µM): 0.3048 and 0.3792 | Inhibitory efficacy (H460 cells; H460, 4uM, single repeats (Repeat 1-3), given as fraction, 4 µM): 0.2364 and 0.2572 | Inhibitory efficacy (H460 cells; H460, 8uM, single repeats (Repeat 1-3), given as fraction, 8 µM): 0.2581 and 0.2146 | Inhibitory efficacy (H460 cells; H460, 16uM, single repeats (Repeat 1-3), given as fraction, 16 µM): 0.3099 and 0.4184 | inhibition at 1 µM (H460 cells; Homo sapiens, NCI-H460, read-out: Inhibitory efficacy, H460, 1uM, single repeats (Repeat 1-3), given as fraction): 13.2% | inhibition at 2 µM (H460 cells; Homo sapiens, NCI-H460, read-out: Inhibitory efficacy, H460, 2uM, single repeats (Repeat 1-3), given as fraction): 30.4% | inhibition at 4 µM (H460 cells; Homo sapiens, NCI-H460, read-out: Inhibitory efficacy, H460, 4uM, single repeats (Repeat 1-3), given as fraction): 30.3% | inhibition at 8 µM (H460 cells; Homo sapiens, NCI-H460, read-out: Inhibitory efficacy, H460, 8uM, single repeats (Repeat 1-3), given as fraction): 29.6% | inhibition at 16 µM (H460 cells; Homo sapiens, NCI-H460, read-out: Inhibitory efficacy, H460, 16uM, single repeats (Repeat 1-3), given as fraction): 26.7%

IC50 (A549 cells; Homo sapiens): 8.4 ± 0.29 µM | melting point: 87 to 90 °C | IC50 (PC-9 cells; Homo sapiens): 16 ± 1.04 µM | IC50 (H1975 cells): 10.8 ± 1.57 µM | IC50 (wild-type EGFR): 49.4 µM | inhibition at 100 fM (wild-type EGFR; concentration 0.0001 nM (reference for normalisation), one value per replicate column): 0% | inhibition at 30 pM (wild-type EGFR; concentration 0.03 nM, one value per replicate column): 4.93% | Inhibition (wild-type EGFR; concentration 0.03 nM, one value per replicate column, 3e-05 µM): 3.3195 | inhibition at 0.0003 µM (wild-type EGFR; concentration 0.3 nM, one value per replicate column): 5.78% | Inhibition (wild-type EGFR; concentration 0.3 nM, one value per replicate column, 0.0003 µM): 3.734 | inhibition at 0.003 µM (wild-type EGFR; concentration 3 nM, one value per replicate column): 6.42% | Inhibition (wild-type EGFR; concentration 3 nM, one value per replicate column, 0.003 µM): 4.357 | inhibition at 0.03 µM (wild-type EGFR; concentration 30 nM, one value per replicate column): 7.71% | Inhibition (wild-type EGFR; concentration 30 nM, one value per replicate column, 0.03 µM): 6.432 | inhibition at 0.3 µM (wild-type EGFR; concentration 300 nM, one value per replicate column): 13.1% | Inhibition (wild-type EGFR; concentration 300 nM, one value per replicate column, 0.3 µM): 8.091 | inhibition at 3 µM (wild-type EGFR; concentration 3000 nM, one value per replicate column): 13.3% | Inhibition (wild-type EGFR; concentration 3000 nM, one value per replicate column, 3 µM): 12.4481 | inhibition at 30 µM (wild-type EGFR; concentration 30000 nM, one value per replicate column): 46.9% | Inhibition (wild-type EGFR; concentration 30000 nM, one value per replicate column, 30 µM): 45.2282 | A450 (wild-type EGFR; concentration 0.0001 nM): 0.614 and 0.641 | A450 (wild-type EGFR; concentration 0.03 nM): 0.591 and 0.625 | A450 (wild-type EGFR; concentration 0.3 nM): 0.587 and 0.623 | A450 (wild-type EGFR; concentration 3 nM): 0.584 and 0.62 | A450 (wild-type EGFR; concentration 30 nM): 0.578 and 0.61 | A450 (wild-type EGFR; concentration 300 nM): 0.553 and 0.602 | A450 (wild-type EGFR; concentration 3000 nM): 0.552 and 0.581 | A450 (wild-type EGFR; concentration 30000 nM): 0.395 and 0.423 | IC50 (H460 cells; Homo sapiens): 4.89 ± 0.23 µM
SMILES: COCCOc1cc2ncnc(Nc3cccc(-c4cn(-c5ccccc5OC)nn4)c3)c2cc1OCCOC [e11, [6,7-Bis-(2-methoxy-ethoxy)-quinazolin-4-yl]-{3-[1-(2-methoxy-phenyl)-1H-[1,2,3]triazol-4-yl]-phenyl}-amine]
Inhibitory efficacy (A549 cells; [1]): 0.1633 and 0.2142 | Inhibitory efficacy (A549 cells; [2]): 0.2462 and 0.3291 | Inhibitory efficacy (A549 cells; [3]): 0.4514 and 0.4662 | Inhibitory efficacy (A549 cells; [4]): 0.7059 and 0.6624 | inhibition at 2 µM (A549 cells; [5]): 20.1% | inhibition at 4 µM (A549 cells; [6]): 25% | inhibition at 8 µM (A549 cells; [7]): 52.7% | inhibition at 16 µM (A549 cells; [8]): 68.7% | inhibition at 8 µM (PC-9 cells; Homo sapiens): 27.4% | inhibition at 16 µM (PC-9 cells; Homo sapiens): 46.7% | Inhibitory efficacy (PC-9 cells; PC-9, 8uM, 8 µM): 0.2959 and 0.2658 | Inhibitory efficacy (PC-9 cells; PC-9, 16uM, 16 µM): 0.4848 and 0.4258 | Inhibitory efficacy (H1975 cells; 2uM): 0.257 and 0.2168 | Inhibitory efficacy (H1975 cells; 4uM): 0.213 and 0.192 | Inhibitory efficacy (H1975 cells; 8uM): 0.4311 and 0.3814 | Inhibitory efficacy (H1975 cells; 16uM): 0.6071 and 0.5938 | inhibition at 2 µM (H1975 cells; 2uM): 29.1% | inhibition at 4 µM (H1975 cells; 4uM): 32.2% | inhibition at 8 µM (H1975 cells; 8uM): 49.2% | inhibition at 16 µM (H1975 cells; 16uM): 59.9% | Inhibitory efficacy (H460 cells; H460 cells, 2uM, given as fraction, Repeat 1-3): 0.2801 and 0.2884 | Inhibitory efficacy (H460 cells; H460 cells, 4uM, given as fraction, Repeat 1-3): 0.5058 and 0.5573 | Inhibitory efficacy (H460 cells; H460 cells, 8uM, given as fraction, Repeat 1-3): 0.6543 and 0.6301 | Inhibitory efficacy (H460 cells; H460 cells, 16uM, given as fraction, Repeat 1-3): 0.6649 and 0.6664 | inhibition at 2 µM (H460 cells; Homo sapiens, NCI-H460, read-out: Inhibitory efficacy, H460 cells, 2uM, given as fraction, Repeat 1-3): 34.4% | inhibition at 4 µM (H460 cells; Homo sapiens, NCI-H460, read-out: Inhibitory efficacy, H460 cells, 4uM, given as fraction, Repeat 1-3): 48.9% | inhibition at 8 µM (H460 cells; Homo sapiens, NCI-H460, read-out: Inhibitory efficacy, H460 cells, 8uM, given as fraction, Repeat 1-3): 64.7% | inhibition at 16 µM (H460 cells; Homo sapiens, NCI-H460, read-out: Inhibitory efficacy, H460 cells, 16uM, given as fraction, Repeat 1-3): 69.5%

— PMC8776995 (Frontiers in Chemistry, 2022)
